The text below walks through data of patent US20110020931A1, “PROLIFERATION PROMOTING AGENT FOR NEURAL STEM CELLS” (KYOWA HAKKO KIRIN CO., LTD., priority 2008, published 2011).

Holding throughout (type): cell-based
Experiment [1] concerns Rat adult neural stem cell line ANSC-7 cells. Nature of the experiment: Test Example 1: Proliferation promoting activity on neural stem cells (1), Hoechst 33342 nucleus staining fluorescence. The note with it: 96 hours culture, nucleus-stain fluorescence, read-out: proliferation promoting activity (relative value, negative control = 100%); for activity at 0.32 µM: 0.32 μmol/L; for activity at 1 µM: 1.0 μmol/L. As to the method: Rat adult neural stem cell line ANSC-7 cells prepared by the method described in the following Reference Example 1 were suspended in DMEM/F12 medium (manufactured by Invitrogen) supplemented with N-2 additives [5 μg/mL insulin (manufactured by Sigma), 100 μg/mL bovine apotransferrin (manufactured by Sigma), 6.3 ng/mL progesterone (manufactured by Sigma), 1.6 μg/mL putrescine (manufactured by Sigma) and 5.2 ng/mL sodium selenate (manufactured by Sigma)] and an antibiotics mixed liquid [0.05 U/mL penicillin and 0.05 μg/mL streptomycin (manufactured by Invitrogen)] (to be referred to as assay medium hereinafter), at a density of 1.7×10^5 cells/mL; inoculated at 0.1 mL in a 96 well plate (manufactured by Costar) of which surface was processed with polyornithine and laminin; and cultured overnight at 37° C. under an atmosphere of 5% CO2. Thereafter, 50 μl of the culture supernatant was removed, and 50 μl of a test compound which was serially diluted with the assay medium to 2 times of the final concentration or DMSO (negative control) was added to each well. After the culturing for 96 hours, 50 μl of the culture supernatant was removed, and 50 μl of a 15% neutral buffered formalin liquid (manufactured by Wako Pure Chemical Industries, Ltd.) cooled to be 4° C. was added to each well and allowed to stand for 1 hour. Thereafter, by washing twice using PBS containing 0.3% Triton X-100 (manufactured by Nacalai Tesque) (hereinafter TBST), 50 μl of Hoechst 33342 (manufactured by Nacalai Tesque) adjusted to 3.3 μmol/L with 5% skim milk solution diluted with PBS containing 0.5% Triton X-100 was added to each well and the nucleus was stained overnight at 4° C. in the dark. After washing twice with 100 μl/well of TBST and then once with PBS and subsequently soaking in 100 μl/well of PBS, fluorescence intensity of the nucleus-stained cells was measured using a fluorometer FDSS 6000 (Hamamatsu Photonics K.K.). By regarding the measured value of well to which the cells were not inoculated as 0%, and the measured value of negative control as 100%, relative values in the test compound addition group were calculated.
(§1) After putting a 7-week-old Sprague Dawley Rat to sleep by ether anesthesia and subsequent decapitation, the skull was cut open from the parietal region to extract the brain. Under a microscope, tissues including circumventricular region were isolated from the extracted brain by using ophthalmic scissors and tweezers. The tissues including circumventricular region were cut into fragments of about 1 mm^3 using ophthalmic scissors and scalpels and then subjected to 30 minutes of digestion reaction at 37° C. in 5 mL of Hanks' buffer containing 2.5 U/mL of papain, 250 U/mL of DNase (all manufactured by Worthington, Freehold, N.J.) and 1 U/mL of a neutral protease (Dispase, manufactured by Boehringer-Mannheim Corp.) (HBSS buffer, manufactured by Invitrogen). The mixture of cells and tissues obtained by the reaction was washed three times with DMEM (manufactured by Invitrogen) containing 10% fetal bovine serum (manufactured by Hyclone) and then dissolved in the DMEM containing 10% fetal bovine serum, followed by removing the undigested materials using a nylon mesh of 10 μm.
(§2) The thus obtained cells crude extract was cultured overnight on a culture dish of 10 cm, in an incubator of 37° C. using DMEM/F12 medium (manufactured by Invitrogen) containing 10% fetal bovine serum. On the next day, the medium was replaced with DMEM/F12 containing 1% of N-2 additives (manufactured by Invitrogen) and 20 ng/mL of FGF 2 (manufactured by Pepro Tech) and the culturing was started. Once in 3 days, half of the medium was replaced with new DMEM/F12 containing 1% of N-2 additives and 20 ng/mL of FGF 2 and the culturing was continued.
When a small colony consisted of small cells was formed, it was treated with 1% trypsin for 30 seconds to 1 minute, and the cells detached were harvested. […]

For experiment [2] the test system is unchanged. The experiment in a line: Test Example 3: Proliferation promoting activity on neural stem cells (3), same manner as Test Example 2. The note with it: 96 h; for activity at 3.2 µM: 3.2 μmol/L; for activity at 0.001 µM: 1 nmol/L; for activity at 0.01 µM: 10 nmol/L. The protocol: (§3) Rat adult neural tem cell line ANSC-7 cells prepared by the method described in the following Reference Example 1 were suspended in the assay medium at a density of 1.7×10^5 cells/mL; inoculated in 0.1 mL portion in a 96 well plate (manufactured by Costar) of which surface was processed with polyornithine and laminin; and cultured overnight at 37° C. under an atmosphere of 5% CO2. Thereafter, 50 μl of the culture supernatant was removed, and 50 μl of a test compound which was serially diluted with the assay medium to 2 times of the final concentration or DMSO (negative control) was added to each well. After the culturing for 96 hours, 10 μl per well of a viable cell counting reagent SF (manufactured by Nacalai Tesque) was added to the culture. After culturing at 37° C. for 3 hours in a 5% CO2 incubator and subsequent stirring for 1 minute, absorbance at 490 nm (control wavelength 655 nm) was measured using a microplate spectrophotometer Emax (manufactured by Molecular Device). By regarding the measured value of well to which the cells were not inoculated as 0%, and the measured value of negative control as 100%, relative values in the test compound addition group were calculated.
Each of the tests was carried out in the same manner as in Test Example 2.
as §1, §2
(§4) When a small colony consisted of small cells was formed, it was treated with 1% trypsin for 30 seconds to 1 minute, and the cells detached were harvested. The harvested cells were inoculated on a multiple well culture dish (manufactured by Fisher Scientific) which had been coated at room temperature overnight using 10 μg/mL of polyornithine (manufactured by Sigma) and at 37° C. overnight using 5 μg/mL of mouse EHS tumor-derived laminin (Becton Dickinson), and the culturing was continued.
(§5) By continuing the above-mentioned culturing, small cells having small protrusion and thickness were concentrated. The cells were used as adult neural stem cells in the above-mentioned tests (Test Examples 1 to 3).

The test system is the same in experiment [3]. Nature of the experiment: Test Example 2: Proliferation promoting activity on neural stem cells (2), viable cell counting reagent SF absorbance. The note with it: 96 hours culture, absorbance 490 nm, read-out: proliferation promoting activity (relative value, negative control = 100%); for activity at 0.32 µM: 0.32 μmol/L; for activity at 1 µM: 1.0 μmol/L. The protocol:
as §3, §1, §2, §4, §5

[4] abbreviates: same manner as Test Example 2, read-out: proliferation promoting activity (relative value, negative control = 100%).

Where only a bound is given, the exact number is not on record here.

For `C=C(CCC1(C)OC2OC3CC1C21CCC2C4(C)CCC(OC(C)=O)CC4CC4OC42C31)C(C)C` (stereo not shown) [Compound A1], the activity at 0.32 µM in experiment [1] was at least 160%. On the same count and under the same terms, for `C=C(CCC1(C)OC2OC3CC1C21CCC2C4(C)CCC(=O)CC4CC4OC42C31)C(C)C` (stereo not shown) [Compound A2] the value was at least 160%; for `CC(C)C(C)CCC1(C)OC2OC3CC1C21CCC2C4(C)CCC(O)CC4CC4OC42C31` (stereo not shown) [Compound A3], at least 160%. With `C=C(CCC1(C)OC2OC3CC1C21CCC2C4(C)CCC(O)CC4CCC2(O)C31)C(C)C` (stereo not shown) [Compound A5], the activity at 0.32 µM in experiment [1] was at least 160%.

Take `CC(C)C(C)/C=C/C(C)C1CCC2/C(=C/C(=O)OC3(C)CCC(O)CC3=O)C(=O)CCC21C` (stereo not shown) [Compound AA]: the activity at 3.2 µM in experiment [2] (setting [4]) was determined as 120%.

For the compound `C=C(CCC1(C)OC2OC3CC1C21CCC2C4(C)CCC(O)CC4CC4OC42C31)C(C)C` (stereo not shown) [Compound A], the values for the activity at 0.32 µM in experiment [1] and in experiment [3] were at least 150% and at least 130%, respectively. With `CC(C)C(C)/C=C/C(C)C1CCC2/C(=C/C(=O)OC3CCC(C)(O)C(=O)C3)C(=O)CCC21C` (stereo not shown) [Compound BB], in experiment [2] (setting [4]), the activity at 3.2 µM was 120%. Turning to `C=C(CCC1(C)OC2OC3CC1C21CCC2C(=CCC4CC(O)CCC42C)C31)C(C)C` (stereo not shown) [Compound B], the activity at 1 µM in experiment [1] is at least 140%. For `C=C(CCC(C)(O)C1CCC2C3=CCC4CC(O)CCC4(C)C3CCC21C)C(C)C` (stereo not shown) [Compound C], the activity at 0.32 µM is at least 150% in experiment [1] and at least 130% in experiment [3]. In the case of `C=C(CCC(=C)C1CC(O)C2C3=CCC4CC(O)CCC4(C)C3CCC12C)C(C)C` (stereo not shown) [Compound D], the activity at 1 µM in experiment [1] is at least 140%; in experiment [3] it was at least 130%. Turning to `C=C(CCC(C)C1CCC2C3=C(CCC21C)C1(C)CCC(O)CC1C(=O)O3)C(C)C` (stereo not shown) [Compound E], the results for the activity at 0.32 µM in experiment [1] and in experiment [3] were at least 150% and at least 130%, respectively.

With `C=C(CCC(C)C1CCC2C3=C(CCC21C)C1(C)CCC(O)CC1CC3=O)C(C)C` (stereo not shown) [Compound F], the activity at 1 µM was at least 140% in experiment [1] and at least 130% in experiment [3]. Consider `C=C(CCC1(C)OC(=O)C23CCC4C5(C)CCC(O)CC5CC5OC54C2C(O)CC13)C(C)C` (stereo not shown) [Compound H], for which, in experiment [3], the activity at 1 µM was at least 130%. For `C=C(CCC(C)(O)C1CC(O)C2C3=CCC4CC(O)CCC4(C)C3CCC21C)C(C)C` (stereo not shown) [Compound J], the activity at 3.2 µM in experiment [3] (3.2 μmol/L) was at least 125%. For the compound `C=C(CCC(=C)C1CC(O)C2C3=CCC4CC(=O)CCC4(C)C3CCC12C)C(C)C` (stereo not shown) [Compound K], the activity at 1 µM in experiment [3] is at least 130%.

For `C=C(CCC1(C)OC2OC3CC1C21CCC2C(=CC=C4CC(O)CCC42C)C31)C(C)C` (stereo not shown) [Compound L], the activity at 0.32 µM in experiment [3] was at least 130%. Regarding `COC(C)(C)/C=C/c1cccc2c3c([nH]c12)C(C)(C)C1CC24CCCN2CC1(C3)NC4=O` (stereo not shown) [Compound M], the activity at 0.32 µM in experiment [2] (read-out: proliferation promoting activity (relative value, negative control = 100%)) is 120%. For `CC(C)=CC(=O)c1cccc2c3c([nH]c12)C(C)(C)C1CC24CCCN2CC1(C3)NC4=O` (stereo not shown) [Compound N], the activity at 1 µM in experiment [2] (1 μmol/L, same manner as Test Example 2, read-out: proliferation promoting activity (relative value, negative control = 100%)) was 120%. On to `C=C(CCC(C)C1CCC2=C3OC(=O)C4CC(O)CCC4(C)C3CCC21C)C(C)C` (stereo not shown) [Compound U], for which the activity at 0.001 µM in experiment [2] (setting [4]) is at least 120%. Same read-out and setting: the same measure for `C=C(CCC(C)C1CC=C2C3=C(CCC21C)C1(C)CCC(O)CC1C(=O)O3)C(C)C` (stereo not shown) [Compound V]: at least 120%. With `C=C(CCC(C)C1CCC2C3C(=O)CC4CC(O)CCC4(C)C3CCC12C)C(C)C` (stereo not shown) [Compound W], in experiment [2] (setting [4]), the activity at 0.01 µM was at least 120%. Turning to `C=C(/C=C/C(C)C1CCC2C3C(=O)CC4CC(O)CCC4(C)C3CCC12C)C(C)C` (stereo not shown) [Compound X], in experiment [2] (setting [4]), the activity at 0.01 µM was at least 120%. As for `C=C(CCC(C)(O)C1CC(O)C2=C3C(O)CC4CC(O)CCC4(C)C3CCC21C)C(C)C` (stereo not shown) [Compound Y], the activity at 3.2 µM in experiment [2] (setting [4]) is 120%.
